Where “and” joins values, the source holds several entries; their conditions need not be identical. Equal values may be shown once.

Assay [1] concerns wild type and GPR40-/- mice. The assay is described as follows: Mouse incretin measurements (plasma glucagon, wild type and GPR40-/- mice). The assay is classed as in vivo. The note with it: for Plasma Glucagon: @ 30, individual animals (Fig 6A). As for the experimental part: Wild type and GPR40-/- mice were weighed the day prior to dosing. Food was removed from mice at lights on. 2 hours later mice were dosed via oral gavage (PO) at a volume of 10 ml/kg with vehicle (0.5% methylcellulose), AP1 at 30 mg/kg, or AP3 at 30 mg/kg. At 60 minutes post dose, mice were euthanized via CO2 asphyxiation. Blood was collected via cardiac puncture.
(§1) Blood for insulin, glucagon, GLP-1, GIP, and PYY measurements was collected into K2EDTA Microtainer tubes (BD, Franklin Lakes, NJ) pre-treated with DPP4 inhibitor (Millipore, Billerica, MA) and cOmplete™ Protease Inhibitor Cocktail Tablets (Roche Diagnostics, Indianapolis, IN). Tubes were centrifuged for 10 minutes at 5000 RPM, and plasma was aliquotted for analysis. Plasma insulin levels were measured via EIA (Mesoscale Discovery ELISA Kit, Gaithersburg MD). Rat plasma total GLP-1 was measured using Total GLP-1 (ver.2) Assay Kit (Cat#: K150JVC). The measurement of active GLP-1 was carried out in a similar manner as that described for total GLP-1 assay with the exception that MSD Active GLP-1 (ver. 2) assay kit (Cat# K150JWC) was used. Rat plasma glucagon was measured using an in-house glucagon assay developed as a MSD format sandwich immunoassay (Merck & Co., Inc., MRL, Kenilworth, NJ USA). The antibody specificity was cross validated via mass- spec using procedures described in Lee et al. Briefly, MSD Streptavidin Gold plates were coated with 2 μg/ml biotin mouse monoclonal antibody generated to glucagon. Test samples were added to the plates and a separate Sulfo- tagged monoclonal antibody was used to detect the captured glucagon protein (2 μg/ml). The ELISA was carried out in the standard reagents in the MSD format. The plate was read on the SECTOR Imager 6000 Reader. Metabolic hormones GIP (Gastric Inhibitory Polypeptide) and PYY (Peptide YY) were measured in rat plasma using the Rat Metabolic Magnetic Bead Panel (EMD Millipore, Billerica, MA). The assay was performed according to manufacturer protocol.

Another assay relates to GK rats. The assay is described as follows: GK rat acute efficacy (glucose, insulin, glucagon after single dose). The assay is classed as in vivo. The note with it: 10 mpk. As for the experimental part: Ambient blood glucose was measured via tail snip with a glucometer (OneTouch Ultra, Lifescan Inc., Milpitas, CA). Body weights were then measured, and food was removed approximately 1 hr post lights on. Animals were sorted into treatment groups based on ambient glucose. At approximately 10 AM, glucose was measured and blood for insulin, glucagon, and drug exposure was collected. […] Each compound tested was dosed at its maximal effective dose determined through a series of dose titrations using this experimental paradigm (data not shown). Effects of treatment on glucose, insulin, and glucagon were measured at 1, 2, 4, and 24 hrs post dose. After the 4 hr blood collection, food was returned overnight and removed the next day at 1 hr post lights on.
as §1

`C[C@H](C(=O)O)[C@H](c1ccc2c(c1)O[C@H](C1CN(Cc3cc(C(F)(F)F)ccc3C(F)(F)F)C1)CC2)C1CC1` [AP3]: the “Plasma Glucagon” value was 20.25 pg/mL and 37.44 pg/mL and 95.8 pg/mL and 40.58 pg/mL and 53.81 pg/mL and 63.13 pg/mL and 24.92 pg/mL in assay [1] (KO mice); 137.56 pg/mL and 161.08 pg/mL and 195.45 pg/mL and 174.67 pg/mL and 101.1 pg/mL and 67.12 pg/mL and 161.82 pg/mL in assay [1] (WT mice). The circulating glucagon entry in assay [1] (WT mice, 30 mg/kg PO, 1h post dose) is recorded as “increase”. Further, the “Plasma Glucagon Over Time (Fig 2C)” value is 19.5235 pg/mL and 95.1724 pg/mL and 78.4069 pg/mL and 68.928 pg/mL and 101.768 pg/mL and 68.1132 pg/mL and 64.8322 pg/mL and 90.2934 pg/mL with GK rats (time 0, individual animals); 91.082 pg/mL and 337.393 pg/mL and 327.979 pg/mL and 373.532 pg/mL and 338.805 pg/mL and 110.666 pg/mL and 312.795 pg/mL and 175.651 pg/mL in the assay with GK rats (time 1, individual animals); 309.053 pg/mL and 291.695 pg/mL and 285.862 pg/mL and 322.143 pg/mL and 116.312 pg/mL and 40.1476 pg/mL and 259.365 pg/mL and 215.877 pg/mL with GK rats (time 2, individual animals); 120.787 pg/mL and 261.082 pg/mL and 116.805 pg/mL and 218.976 pg/mL and 231.061 pg/mL and 206.193 pg/mL and 151.031 pg/mL and 315.618 pg/mL in the assay on GK rats (time 4, individual animals); 114.227 pg/mL and 80.8254 pg/mL and 201.451 pg/mL and 177.87 pg/mL and 103.778 pg/mL and 114.567 pg/mL and 171.755 pg/mL and 119.088 pg/mL with GK rats (time 24, individual animals). For the same molecule, the “Plasma Insulin Over Time (Fig 2B)” value is 1.335 ng/mL and 3.288 ng/mL and 2.57 ng/mL and 2.616 ng/mL and 1.578 ng/mL and 2.696 ng/mL and 1.845 ng/mL and 1.5169 ng/mL in the assay with GK rats (time 0, individual animals); 7.035 ng/mL and 11.786 ng/mL and 10.5354 ng/mL and 9.1461 ng/mL and 4.564 ng/mL and 7.402 ng/mL and 7.0553 ng/mL and 5.184 ng/mL with GK rats (time 1, individual animals); 3.782 ng/mL and 3.3115 ng/mL and 3.493 ng/mL and 3.854 ng/mL and 1.215 ng/mL and 0.8625 ng/mL and 2.2798 ng/mL and 2.163 ng/mL with GK rats (time 2, individual animals); 3.033 ng/mL and 3.537 ng/mL and 3.038 ng/mL and 2.421 ng/mL and 1.582 ng/mL and 1.483 ng/mL and 2.06 ng/mL and 1.86 ng/mL in the assay with GK rats (time 4, individual animals); 1.556 ng/mL and 1.426 ng/mL and 1.797 ng/mL and 1.415 ng/mL and 0.6908 ng/mL and 1.576 ng/mL and 1.455 ng/mL and 1.848 ng/mL in the assay on GK rats (time 24, individual animals).

The values are drawn from PMC5650142, “GPR40 partial agonists and AgoPAMs: Differentiating effects on glucose and hormonal secretions in the rodent” (PLoS ONE, 2017).
